{
  "source": "patent US10968215B2",
  "about": "(SHANGHAI HAIHE PHARMACEUTICAL CO., LTD., priority 2016, dated 2021)",
  "data": [
    {"molecular_target": "PRC2 complex (EZH2 Y641F/EED/SUZ12/RbAp48/AEBP2) (Homo sapiens (Human), UniProt Q15910, Y641F)", "sequence (Q15910 whole entry Y641F)": "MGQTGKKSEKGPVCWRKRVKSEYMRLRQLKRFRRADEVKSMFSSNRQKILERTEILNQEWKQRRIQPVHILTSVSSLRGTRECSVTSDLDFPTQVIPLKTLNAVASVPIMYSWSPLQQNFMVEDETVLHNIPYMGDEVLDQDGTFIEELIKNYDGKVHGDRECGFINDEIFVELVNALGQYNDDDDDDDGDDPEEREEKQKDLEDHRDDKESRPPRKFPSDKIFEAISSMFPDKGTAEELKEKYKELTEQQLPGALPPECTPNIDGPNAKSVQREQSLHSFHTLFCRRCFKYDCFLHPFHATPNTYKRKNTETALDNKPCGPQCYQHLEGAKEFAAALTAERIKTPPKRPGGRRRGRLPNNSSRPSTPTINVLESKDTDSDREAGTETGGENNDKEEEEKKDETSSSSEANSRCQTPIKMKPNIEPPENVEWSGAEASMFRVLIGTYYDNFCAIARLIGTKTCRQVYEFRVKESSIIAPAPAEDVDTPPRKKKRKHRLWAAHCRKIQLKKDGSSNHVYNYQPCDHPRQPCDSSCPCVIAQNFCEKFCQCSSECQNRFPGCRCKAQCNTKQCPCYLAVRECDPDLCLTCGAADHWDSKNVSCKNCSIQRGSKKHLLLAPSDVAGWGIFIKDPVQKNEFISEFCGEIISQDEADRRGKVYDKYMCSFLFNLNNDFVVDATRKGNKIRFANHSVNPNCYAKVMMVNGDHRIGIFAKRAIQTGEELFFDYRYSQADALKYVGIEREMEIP", "sequence (O75530 whole entry partner)": "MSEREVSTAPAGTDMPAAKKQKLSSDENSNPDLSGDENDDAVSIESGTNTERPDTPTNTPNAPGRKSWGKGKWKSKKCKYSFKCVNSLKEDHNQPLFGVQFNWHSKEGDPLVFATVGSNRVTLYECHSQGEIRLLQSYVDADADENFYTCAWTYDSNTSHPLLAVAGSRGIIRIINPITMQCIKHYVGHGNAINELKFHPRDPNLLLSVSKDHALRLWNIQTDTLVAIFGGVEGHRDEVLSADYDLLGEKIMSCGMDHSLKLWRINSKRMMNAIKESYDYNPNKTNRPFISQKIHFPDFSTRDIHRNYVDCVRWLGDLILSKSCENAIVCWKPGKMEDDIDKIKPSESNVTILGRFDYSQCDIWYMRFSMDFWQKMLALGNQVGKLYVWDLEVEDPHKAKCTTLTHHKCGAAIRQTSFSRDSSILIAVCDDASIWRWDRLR", "sequence (Q15022 whole entry partner)": "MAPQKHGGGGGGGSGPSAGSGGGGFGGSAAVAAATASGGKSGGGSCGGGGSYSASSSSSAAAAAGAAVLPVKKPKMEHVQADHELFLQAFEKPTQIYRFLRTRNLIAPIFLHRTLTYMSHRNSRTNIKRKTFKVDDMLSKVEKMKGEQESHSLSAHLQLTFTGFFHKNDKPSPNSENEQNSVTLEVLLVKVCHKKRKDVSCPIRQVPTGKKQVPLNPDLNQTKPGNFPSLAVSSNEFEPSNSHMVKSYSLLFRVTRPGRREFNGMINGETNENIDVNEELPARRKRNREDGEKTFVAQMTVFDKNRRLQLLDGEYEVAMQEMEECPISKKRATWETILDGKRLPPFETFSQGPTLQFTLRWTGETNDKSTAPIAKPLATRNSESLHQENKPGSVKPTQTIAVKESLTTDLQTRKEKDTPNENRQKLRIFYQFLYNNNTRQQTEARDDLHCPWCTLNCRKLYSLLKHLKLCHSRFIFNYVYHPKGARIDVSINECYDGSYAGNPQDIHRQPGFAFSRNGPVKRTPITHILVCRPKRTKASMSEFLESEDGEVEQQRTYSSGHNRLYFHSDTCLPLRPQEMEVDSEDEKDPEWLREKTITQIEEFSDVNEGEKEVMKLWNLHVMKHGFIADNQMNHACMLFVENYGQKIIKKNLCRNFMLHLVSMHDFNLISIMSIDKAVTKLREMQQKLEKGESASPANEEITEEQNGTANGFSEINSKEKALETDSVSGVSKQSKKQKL", "sequence (Q09028 whole entry partner)": "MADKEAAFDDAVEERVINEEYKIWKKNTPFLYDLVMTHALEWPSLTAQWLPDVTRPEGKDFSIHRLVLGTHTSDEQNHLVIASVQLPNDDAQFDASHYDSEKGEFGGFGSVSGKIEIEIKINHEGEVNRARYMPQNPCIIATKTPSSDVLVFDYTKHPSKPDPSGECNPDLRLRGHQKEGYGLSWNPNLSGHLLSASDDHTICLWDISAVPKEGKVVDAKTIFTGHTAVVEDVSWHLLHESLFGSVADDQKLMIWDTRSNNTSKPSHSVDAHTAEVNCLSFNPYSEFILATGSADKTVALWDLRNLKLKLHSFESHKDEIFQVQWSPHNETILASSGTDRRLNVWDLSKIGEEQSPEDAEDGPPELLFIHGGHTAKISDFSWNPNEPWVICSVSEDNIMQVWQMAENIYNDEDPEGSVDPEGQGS", "sequence (Q6ZN18 whole entry partner)": "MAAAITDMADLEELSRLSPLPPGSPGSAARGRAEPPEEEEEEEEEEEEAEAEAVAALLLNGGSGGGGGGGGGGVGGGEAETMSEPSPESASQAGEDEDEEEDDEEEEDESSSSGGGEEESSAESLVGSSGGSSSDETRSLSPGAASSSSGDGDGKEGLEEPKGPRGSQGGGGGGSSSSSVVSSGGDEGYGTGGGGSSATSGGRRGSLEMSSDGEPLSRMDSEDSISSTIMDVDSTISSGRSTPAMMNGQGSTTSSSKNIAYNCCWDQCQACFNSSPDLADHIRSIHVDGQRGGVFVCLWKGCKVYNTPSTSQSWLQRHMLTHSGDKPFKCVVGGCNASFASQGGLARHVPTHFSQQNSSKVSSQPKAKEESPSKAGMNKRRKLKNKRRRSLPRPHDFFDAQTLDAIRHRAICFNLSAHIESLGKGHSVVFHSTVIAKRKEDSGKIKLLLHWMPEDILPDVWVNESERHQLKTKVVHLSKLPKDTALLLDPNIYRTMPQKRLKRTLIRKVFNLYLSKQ", "assay": "Activity of a compound to PRC2 complex (EZH2 Y641F), HTRF", "conditions": "not given", "units": {"IC50": "nM"}, "values": [
      {"smiles": "Cc1cc(C)c(CNC(=O)c2cc3cc(-c4cnn(C)c4)cn3c(C(C)N3CCOCC3)c2C)c(=O)[nH]1", "note": "(stereo not shown) [Example 42, N-((4,6-dimethyl-2-oxo-1,2-dihydropyridin-3-yl)methyl)-6-methyl-2-(1-methyl-1H-pyrazol-4-yl)-5-(1-morpholinylethyl)indolizine-7-carboxamide]", "IC50": "< 100"},
      {"smiles": "Cc1cc(C)c(CNC(=O)c2cc3cc(-c4cccnc4)cn3c(C(C)N3CCC(N(C)C)CC3)c2C)c(=O)[nH]1", "note": "(stereo not shown) [Example 49, N-((4,6-dimethyl-2-oxo-1,2-dihydropyridin-3-yl)methyl)-5-(1-(4-(dimethylamino)piperidin-1-yl)ethyl)-6-methyl-2-(pyridin-3-yl)indolizine-7-carboxamide]", "IC50": "< 100"},
      {"smiles": "Cc1cc(C)c(CNC(=O)c2cc3cc(-c4cn(C)cn4)cn3c(C(C)N3CCOCC3)c2C)c(=O)[nH]1", "note": "(stereo not shown) [Example 52, N-((4,6-dimethyl-2-oxo-1,2-dihydropyridin-3-yl)methyl)-6-methyl-2-(1-methyl-1H-imidazole-4-yl)-5-(1-morpholineylethyl)indolizine-7-carboxamide]", "IC50": "100 to 1000"},
      {"smiles": "CCN(c1c(C)c(C(=O)NCc2c(C)cc(C)[nH]c2=O)cc2cccn12)C1CCOCC1", "note": "[Example 56, N-((4,6-dimethyl-2-oxo-1,2-dihydropyridin-3-yl)methyl)-6-methyl-5-(ethyl(tetrahydro-2H-pyran-4-yl)amino)indolizine-7-carboxamide]", "IC50": "< 100"},
      {"smiles": "CCN(c1c(C)c(C(=O)NCc2c(C)cc(C)[nH]c2=O)cc2cc(Br)cn12)C1CCOCC1", "note": "[Example 58, 2-bromo-N-((4,6-dimethyl-2-oxo-1,2-dihydropyridin-3-yl)methyl)-5-(ethyl(tetrahydro-2H-pyran-4-yl)amino)-6-methylindolizine-7-carboxamide]", "IC50": "100 to 1000"},
      {"smiles": "CCN(c1c(C)c(C(=O)NCc2c(C)cc(C)[nH]c2=O)cc2cc(Br)cn12)C1CCN(C(C)=O)CC1", "note": "[Example 62, 5-((1-acetylpiperidin-4-yl)(ethyl)amino)-2-bromo-N-((4,6-dimethyl-2-oxo-1,2-dihydropyridine-3-yl)methyl)-6-methylindolizine-7-carboxamide]", "IC50": "< 100"},
      {"smiles": "Cc1cc(C)c(CNC(=O)c2cc3cncn3c(N(C)C3CCOCC3)c2C)c(=O)[nH]1", "note": "[Example 68, N-((4,6-dimethyl-2-oxo-1,2-dihydropyridin-3-yl)methyl)-6-methyl-5-(methyl(tetrahydro-2H-pyran-4-yl)amino)imidazo[1,5-a]pyridine-7-carboxamide]", "IC50": "< 100"},
      {"smiles": "CCN(c1c(C)c(C(=O)NCc2c(C)cc(C)[nH]c2=O)cc2cc(-c3cn(C)cn3)cn12)C1CCOCC1", "note": "[Example 73, N-((4,6-dimethyl-2-oxo-1,2-dihydropyridin-3-yl)methyl)-5-(ethyl(tetrahydro-2H-pyran-4-yl)amino)-6-methyl-2-(1-methyl-1H-imidazol-4-yl)indolizin-7-carboxamide]", "IC50": "< 100"}
    ]},
    {"molecular_target": "PRC2 complex (EZH2 Y641F/EED/SUZ12/RbAp48/AEBP2) (Homo sapiens (Human), UniProt Q15910, Y641F)", "assay": "Activity of a compound to PRC2 complex (EZH2 Y641F), HTRF", "conditions": "read-out: IC50 (EZH2_Y641F); EZH2 Y641F PRC2 complex, HTRF; class symbols", "units": {"IC50": "nM"}, "values": [
      {"smiles": "Cc1cc(C)c(CNC(=O)c2cc3cc(-c4ccc(CN5CCOCC5)cc4)cn3c(C(C)N3CCOCC3)c2C)c(=O)[nH]1", "note": "(stereo not shown) [Example 39, N-((4,6-dimethyl-2-oxo-1,2-dihydropyridin-3-yl)methyl)-6-methyl-5-(1-morphinolinylethyl)-2-(4-(morphinolinylmethyl)phenyl)indolizine-7-carboxamide]", "IC50": "< 100"},
      {"smiles": "Cc1cc(C)c(CNC(=O)c2cc3cc(-c4ccnn4C)cn3c(C(C)N3CCOCC3)c2C)c(=O)[nH]1", "note": "(stereo not shown) [Example 41, N-((4,6-dimethyl-2-oxo-1,2-dihydropyridin-3-yl)methyl)-6-methyl-2-(1-methyl-1H-pyrazol-5-yl)-5-(1-morpholineylethyl)indolizine-7-carboxamide]", "IC50": "< 100"},
      {"smiles": "COc1ccc(-c2cc3cc(C(=O)NCc4c(C)cc(C)[nH]c4=O)c(C)c(C(C)N4CCOCC4)n3c2)c(F)c1", "note": "(stereo not shown) [Example 43, N-((4,6-dimethyl-2-oxo-1,2-dihydropyridin-3-yl)methyl)-2-(2-fluoro-4-methoxyphenyl)-6-methyl-5-(1-morphinolinylethyl)indolizine-7-carboxamide]", "IC50": "< 100"},
      {"smiles": "Cc1cc(C)c(CNC(=O)c2cc3cc(-c4cnn(C5CCNCC5)c4)cn3c(C(C)N3CCOCC3)c2C)c(=O)[nH]1", "note": "(stereo not shown) [Example 44, N-((4,6-dimethyl-2-oxo-1,2-dihydropyridin-3-yl)methyl)-6-methyl-5-(1-morphinolinylethyl)-2-(1-(piperidin-4-yl)-1H-pyrazol-4-yl)indolizine-7-carboxamide]", "IC50": "< 100"},
      {"smiles": "Cc1cc(C)c(CNC(=O)c2cc3cc(C4=CCNCC4)cn3c(C(C)N3CCOCC3)c2C)c(=O)[nH]1", "note": "(stereo not shown) [Example 45, N-((4,6-dimethyl-2-oxo-1,2-dihydropyridin-3-yl)methyl)-6-methyl-5-(1-morphinolinylethyl)-2-(1,2,3,6-tetrahydropyridin-4-yl)indolizine-7-carboxamide]", "IC50": "1000 to 10000"},
      {"smiles": "Cc1cc(C)c(CNC(=O)c2cc3cc(C4CCNCC4)cn3c(C(C)N3CCOCC3)c2C)c(=O)[nH]1", "note": "(stereo not shown) [Example 46, N-((4,6-dimethyl-2-oxo-1,2-dihydropyridin-3-yl)methyl)-6-methyl-5-(1-morphinolinylethyl)-2-(piperidin-4-yl)indolizine-7-carboxamide]", "IC50": "< 100"},
      {"smiles": "Cc1cc(C)c(CNC(=O)c2cc3cc(C4=CCOCC4)cn3c(C(C)N3CCOCC3)c2C)c(=O)[nH]1", "note": "(stereo not shown) [Example 47]", "IC50": "100 to 1000"},
      {"smiles": "Cc1cc(C)c(CNC(=O)c2cc3cc(-c4cccnc4)cn3c(C(C)N3CCC(N(C)C)CC3)c2C)c(=O)[nH]1", "note": "(stereo not shown) [Example 48, N-((4,6-dimethyl-2-oxo-1,2-dihydropyridin-3-yl)methyl)-6-methyl-5-(1-morphinolinylethyl)-2-(tetrahydro-2H-pyran-4-yl)indolizine-7-carboxamide]", "IC50": "< 100"},
      {"smiles": "Cc1cc(C)c(CNC(=O)c2cc3cc(-c4nccs4)cn3c(C(C)N3CCOCC3)c2C)c(=O)[nH]1", "note": "(stereo not shown) [Example 50, N-((4,6-dimethyl-2-oxo-1,2-dihydropyridin-3-yl)methyl)-6-methyl-5-(1-morphinolinylethyl)-2-(thiazol-2-yl)indolizine-7-carboxamide]", "IC50": "< 100"},
      {"smiles": "Cc1cc(C)c(CNC(=O)c2cc3cc(-c4cn(C)cn4)cn3c(C(C)N3CCOCC3)c2C)c(=O)[nH]1", "note": "(stereo not shown) [Example 51, N-((4,6-dimethyl-2-oxo-1,2-dihydropyridin-3-yl)methyl)-6-methyl-5-(1-morphinolinylethyl)-2-(pyridin-2-yl)indolizine-7-carboxamide]", "IC50": "< 100"},
      {"smiles": "Cc1cc(C)c(CNC(=O)c2cc3c(Br)ccn3c(C(C)N3CCOCC3)c2C)c(=O)[nH]1", "note": "(stereo not shown) [Example 53, N-((4,6-dimethyl-2-oxo-1,2-dihydropyridin-3-yl)methyl)-6-methyl-5-(1-morphinolinylethyl)-2-(4,5,6,7-tetrahydrothiazolo[5,4-c]pyridin-2-yl)indolizine-7-carboxamide]", "IC50": "< 100"},
      {"smiles": "Cc1cc(C)c(CNC(=O)c2cc3c(Br)ccn3c(C(C)N3CCOCC3)c2C)c(=O)[nH]1", "note": "(stereo not shown) [Example 54, 1-bromo-N-((4,6-dimethyl-2-oxo-1,2-dihydropyridin-3-yl)methyl)-6-methyl-5-(1-morpholinylethyl)indolizine-7-carboxamide]", "IC50": "< 100"},
      {"smiles": "CCN(c1c(C)c(C(=O)NCc2c(C)cc(C)[nH]c2=O)cc2cc(Br)cn12)C1CCOCC1", "note": "[Example 57]", "IC50": "100 to 1000"},
      {"smiles": "CCN(c1c(C)c(C(=O)NCc2c(C)cc(C)[nH]c2=O)cc2cc(Br)cn12)C1CNC1", "note": "[Example 59]", "IC50": "1000 to 10000"},
      {"smiles": "CCN(c1c(C)c(C(=O)NCc2c(C)cc(C)[nH]c2=O)cc2cc(Br)cn12)C1CCNCC1", "note": "[Example 61, 2-bromo-N-((4,6-dimethyl-2-oxo-1,2-dihydropyridin-3-yl)methyl)-5-(ethyl(piperidin-4-yl)amino)-6-methylindolizine-7-carboxamide]", "IC50": "100 to 1000"},
      {"smiles": "CCN(c1c(C)c(C(=O)NCc2c(C)cc(C)[nH]c2=O)cc2cc(-c3ccccc3)cn12)C1CCOCC1", "note": "[Example 63]", "IC50": "100 to 1000"},
      {"smiles": "CCN(c1c(C)c(C(=O)NCc2c(C)cc(C)[nH]c2=O)cc2cc(-c3ccnn3C)cn12)C1CCOCC1", "note": "[Example 64, N-((4,6-dimethyl-2-oxo-1,2-dihydropyridin-3-yl)methyl)-5-(ethyl(tetrahydro-2H-pyran-4-yl)amino)-6-methyl-2-(4-morpholinephenyl)indolizine-7-carboxamide]", "IC50": "100 to 1000"},
      {"smiles": "CCN(c1c(C)c(C(=O)NCc2c(C)cc(C)[nH]c2=O)cc2cc(-c3ccnn3C)cn12)C1CCOCC1", "note": "[Example 65, N-((4,6-dimethyl-2-oxo-1,2-dihydropyridin-3-yl)methyl)-5-(ethyl(tetrahydro-2H-pyran-4-yl)amino)-6-methyl-2-(1-methyl-1H-pyrazol-5-yl)indolizin-7-carboxamide]", "IC50": "< 100"},
      {"smiles": "CCN(c1c(C)c(C(=O)NCc2c(C)cc(C)[nH]c2=O)cc2cc(-c3cnn(C)c3)cn12)C1CCOCC1", "note": "[Example 66, N-((4,6-dimethyl-2-oxo-1,2-dihydropyridin-3-yl)methyl)-5-(ethyl(tetrahydro-2H-pyran-4-yl)amino)-6-methyl-2-(1-methyl-1H-pyrazol-4-yl)indolizin-7-carboxamide]", "IC50": "< 100"},
      {"smiles": "CCN(c1c(C)c(C(=O)NCc2c(C)cc(C)[nH]c2=O)cc2cc(-c3nccs3)cn12)C1CCOCC1", "note": "[Example 67, N-((4,6-dimethyl-2-oxo-1,2-dihydropyridin-3-yl)methyl)-5-(ethyl(tetrahydro-2H-pyran-4-yl)amino)-6-methyl-2-(thiazol-2-yl)indolizin-7-carboxamide]", "IC50": "100 to 1000"},
      {"smiles": "Cc1cc(C)c(CNC(=O)c2cc3cc(Cl)cn3c(C(C)N3CCOCC3)c2C)c(=O)[nH]1", "note": "(stereo not shown) [Example 69, 2-chloro-N-((4,6-dimethyl-2-oxo-1,2-dihydropyridin-3-yl)methyl)-6-methyl-5-(1-morphinolinylethyl)indolizine-7-carboxamide]", "IC50": "< 100"},
      {"smiles": "Cc1cc(C)c(CNC(=O)c2cc3cc(Cl)cn3c(C(C)N3CCC(N(C)C)CC3)c2C)c(=O)[nH]1", "note": "(stereo not shown) [Example 70]", "IC50": "< 100"},
      {"smiles": "Cc1cc(C)c(CNC(=O)c2cc3cncn3c(C(C)N3CCOCC3)c2C)c(=O)[nH]1", "note": "(stereo not shown) [Example 71, N-((4,6-dimethyl-2-oxo-1,2-dihydropyridin-3-yl)methyl)-6-methyl-5-(1-morphinolinylethyl)imidazo[1,5-a]pyridine-7-carboxamide]", "IC50": "< 100"}
    ]}
  ]
}
